Assay results published in paper PMC9916770, “Lycorine Carbamate Derivatives for Reversing P-glycoprotein-Mediated Multidrug Resistance in Human Colon Adenocarcinoma Cells” (International Journal of Molecular Sciences, 2023).

Tests used:
Colo320 cells [1] = assay: Checkerboard drug combination assay with doxorubicin; assay type: cell-based, human; conditions: for Type of interaction: Colo320; for CI at IC50 (combination index): Colo320, 50% growth inhibition
Protocol: The interaction of lycorine (1) and some selected derivatives (2, 5, 9, 13, 16, 19, 25, and 26) in combination with the chemotherapeutic drug doxorubicin was performed by the checkerboard assay, a widely used technique for assessing drug interactions, in resistant human Colo320 colon adenocarcinoma cells. The type of drug–drug interaction was evaluated by using the Chou and Talalay method for drug combination and expressed using the combination index (CI) values, and therefore evaluated as synergism (CI < 1), additive (CI = 1), or antagonist (CI > 1).
Drug combination interactions between the compounds and the chemotherapeutic drug doxorubicin were assessed by the checkboard microplate assay on the resistant Colo320, expressing the P-gp transporter. Doxorubicin was serially diluted in the horizontal direction in 100 µL, starting with 8.6 µM, and the compounds were subsequently diluted in the vertical direction in 50 µL. The starting concentration was determined based on the IC50 values. The cells were resuspended in a culture medium and distributed into each well in 50 µL, containing 6 × 10^3 cells, to a final volume of 200 µL per well. The plates were incubated for 72 h at 37 °C in a CO2 incubator, and the cell growth was determined by the MTT staining method, as described previously. Drug interactions were evaluated using CompuSyn software to plot 4 or 5 data points for each ratio (ref software). The results were expressed in terms of combination index (CI) values of 50% growth inhibition, in which a CI value close to 1 indicates additivity, while a CI < 1 is defined as synergy, and a CI > 1 as antagonism.

Colo205 cells = assay: MTT antiproliferative assay, sensitive cells; assay type: cell-based, human; conditions: for IC50: Homo sapiens, COLO 205, sensitive Colo205, MTT, 72 h, mean ± SD; for SI (selectivity index) C/A: IC50 MRC-5 / IC50 Colo205
Protocol: (§1) The human colon adenocarcinoma cell lines Colo205 doxorubicin-sensitive (CCL-222, ATCC, Manassas, VA, USA) and the resistant Colo320/MDR-LRP expressing P-gp were purchased from LGC Promochem (Teddington, UK). The MRC-5 human embryonal lung fibroblast cell line (CCL-171, ATCC) was purchased from Sigma-Aldrich (Merck KGaA, Darmstadt, Germany). The human colon adenocarcinoma cells (Colo205 and Colo320) were cultured in an RPMI 1640 medium supplemented with 10% fetal bovine serum (FBS), 2 mM L-glutamine, 1 mM Na-pyruvate, and 100 mM HEPES. The semi-adherent human colon cancer cells were detached with a trypsin-Versene (EDTA) solution for 5 min at 37 °C. The MRC-5 human embryonal lung fibroblast cells were cultured in EMEM containing 4.5 g/L of glucose and supplemented with a non-essential amino acid mixture, a selection of vitamins, and 10% FBS. The cell lines were incubated at 37 °C, 5% CO2, and 95% air atmosphere.
(§2) The antiproliferative effect of the compounds was tested in decreasing serial dilutions of compounds (starting with 100 µM, then two-fold serial dilution) on human cell lines (Colo205, Colo320, and MRC-5) in 96-well flat-bottomed microtiter plates. Firstly, the compounds were diluted in 100 µL of the medium, and then 6 × 10^3 cells (Colo205 and Colo320), in 100 µL of medium, were added to each well, excluding the medium control wells. The MRC-5 adherent cell line was seeded in the EMEM medium for at least 4 h before the assay. The two-fold serial dilutions of the compounds were made in a separate plate (100–0.19 μM) and then transferred to the plates containing the adherent corresponding cell line. Culture plates were incubated at 37 °C for 72 h, and at the end of the incubation period, 20 μL of MTT (thiazolyl blue tetrazolium bromide) solution (from a 5 mg/mL stock solution) was added to each well and incubated for an additional 4 h. Then, 100 μL of sodium dodecyl sulfate (SDS) solution (10% SDS in 0.01 M HCl) was added to each well, and the plates were further incubated at 37 °C overnight in a CO2 incubator. Cell growth was determined by measuring the optical density (OD) at 540/630 nm with a Multiscan EX ELISA reader (Thermo Labsystems, Cheshire, WA, USA). […] IC50 values and the standard deviation (SD) of triplicate experiments were calculated by using GraphPad Prism 5 software for Windows. Doxorubicin (2 mg/mL, Teva Pharmaceuticals, Budapest, Hungary) was used as a positive control and the vehicle DMSO as the negative control. (1) IC50=[ODsample−ODmedium control/ODcell control−ODmedium control]×100
(§3) The relative resistance (RR) was calculated as the ratio of the IC50 value in the resistant cancer cells and the IC50 in the sensitive cancer cell lines. The selectivity indexes (SI) were calculated as the ratio of the IC50 values in the non-tumor cells and the IC50 in the cancer cell lines. The activity of the compounds toward cancer cells is considered strongly selective if the selectivity index (SI) value is higher than 6, moderately selective if 3 < SI < 6, slightly selective if 1 < SI < 3, and non-selective if SI is lower than 1.

MRC-5 cells = assay: MTT antiproliferative assay, normal lung fibroblasts; assay type: cell-based; conditions: Homo sapiens, normal embryonal lung fibroblasts, 72 h, mean ± SD, read-out: IC50 MCR-5 (C)
Protocol: as §1, §2, §3

Colo320 cells [2] = assay: MTT antiproliferative assay, resistant cells; assay type: cell-based, human; conditions: for IC50: Homo sapiens, COLO 320, resistant Colo320, MTT, 72 h, mean ± SD, read-out: IC50 Colo320 (B); for SI (selectivity index) C/B: IC50 MRC-5 / IC50 Colo320; for RR (relative resistance ratio) B/A: IC50 resistant Colo320 / IC50 sensitive Colo205
Protocol: as §1, §2, §3

[3] = biological target: T1, recombinant human P-gp membranes (Homo sapiens, UniProt P08183); assay: P-gp-Glo ATPase activity assay; assay type: biochemical; conditions: 25 µM, basal activity = 100%
T1 construct: purchased Promega
T1 sequence (P08183 whole entry): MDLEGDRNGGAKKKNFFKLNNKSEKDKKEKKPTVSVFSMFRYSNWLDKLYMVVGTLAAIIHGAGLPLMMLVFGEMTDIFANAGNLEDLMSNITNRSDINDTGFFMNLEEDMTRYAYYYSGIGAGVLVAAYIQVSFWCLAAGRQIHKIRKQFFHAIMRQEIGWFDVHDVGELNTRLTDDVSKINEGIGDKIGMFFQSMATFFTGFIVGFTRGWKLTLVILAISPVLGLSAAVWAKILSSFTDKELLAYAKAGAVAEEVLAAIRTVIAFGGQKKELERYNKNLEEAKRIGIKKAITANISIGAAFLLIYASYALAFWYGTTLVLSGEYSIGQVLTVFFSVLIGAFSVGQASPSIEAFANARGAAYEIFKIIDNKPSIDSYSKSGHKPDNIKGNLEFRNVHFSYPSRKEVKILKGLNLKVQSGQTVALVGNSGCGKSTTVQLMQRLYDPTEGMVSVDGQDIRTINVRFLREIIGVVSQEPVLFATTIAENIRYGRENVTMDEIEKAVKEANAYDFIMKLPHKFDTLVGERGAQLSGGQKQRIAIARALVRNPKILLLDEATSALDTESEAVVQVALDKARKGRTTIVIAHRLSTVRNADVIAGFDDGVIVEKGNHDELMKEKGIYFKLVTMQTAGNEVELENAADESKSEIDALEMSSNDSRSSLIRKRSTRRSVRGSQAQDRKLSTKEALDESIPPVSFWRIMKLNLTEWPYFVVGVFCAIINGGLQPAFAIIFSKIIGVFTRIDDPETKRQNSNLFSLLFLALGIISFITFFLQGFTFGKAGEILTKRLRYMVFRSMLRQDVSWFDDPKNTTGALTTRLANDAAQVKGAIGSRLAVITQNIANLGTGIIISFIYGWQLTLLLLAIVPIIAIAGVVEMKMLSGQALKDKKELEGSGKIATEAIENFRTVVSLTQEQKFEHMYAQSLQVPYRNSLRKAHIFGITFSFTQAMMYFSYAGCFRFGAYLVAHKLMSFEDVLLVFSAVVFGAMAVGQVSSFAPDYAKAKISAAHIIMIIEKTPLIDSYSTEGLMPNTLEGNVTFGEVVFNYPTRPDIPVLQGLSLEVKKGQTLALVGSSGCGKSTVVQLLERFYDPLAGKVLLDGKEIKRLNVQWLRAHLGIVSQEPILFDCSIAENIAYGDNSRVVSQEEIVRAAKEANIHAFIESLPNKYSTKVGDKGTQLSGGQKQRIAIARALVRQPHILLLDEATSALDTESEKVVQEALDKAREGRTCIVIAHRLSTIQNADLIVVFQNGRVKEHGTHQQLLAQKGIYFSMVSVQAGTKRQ
Protocol: To evaluate the type of interaction between selected compounds and P-gp, namely to determine if they interacted as stimulators or inhibitors, the ATPase activity assay (P-gp.Glo^TM) was performed, using human P-gp membranes. This assay is based on the ATP consumption necessary for the efflux, obtained from ATP hydrolysis by light-generating firefly luciferase reaction. […] Vanadate is a selective and strong P-gp inhibitor. Therefore, the compounds can be classified as inhibitors or stimulators/substrates by comparing P-gp ATPase activity with the basal activity; stimulators give results higher than 100%, while inhibitors result below 100% of the basal activity. […] The results are presented in Figure 2 as the difference between the luciferase luminescence observed when treated with the tested compounds and with vanadate and compared with the basal activity (100%).
The P-glycoprotein ATPase assay was assessed using the P-gp-Glo^TM Assay System (Promega, WI, USA). The assay was performed according to the manufacturer’s instructions. Briefly, 20 µL of recombinant human P-gp membranes (1.25 mg/mL), expressing high levels of human P-gp, were incubated in 20 µL of P-gp-Glo^TM assay buffer for 5 min at 37 °C. […] The reaction was initiated by adding 10 µL of 25 mM MgATP, and incubated at 37 °C for 40 min. The reaction was stopped after adding 50 µL of ATP Detection Reagent, and the samples and controls were incubated at room temperature for 20 min. The emitted luciferase-generated luminescent signal was measured in a CLARIOstar Plus plate reader (BMG Labtech, Ortenberg, Germany) at 580 nm. The relative ATPase activity was calculated based on the ratio between the luminescence measured of the P-gp ATPase activity of each compound and the basal P-gp ATPase activity according to Equation (3): (3) Relative ATPase activity= Lumtreated−Lumuntreated /LumNa3VO4/Lumuntreated

| Structure (SMILES) | Type of interaction (Colo320 cells [1]) | CI at IC50 (combination index) (Colo320 cells [1]) | IC50 (Colo205 cells) [µM] | SI (selectivity index) C/A (Colo205 cells) | IC50 (MRC-5 cells) [µM] | IC50 (Colo320 cells [2]) [µM] | SI (selectivity index) C/B (Colo320 cells [2]) | RR (relative resistance ratio) B/A (Colo320 cells [2]) | Effect on basal P-gp ATPase activity [3] |
| --- | --- | --- | --- | --- | --- | --- | --- | --- | --- |
| O=C(NCc1ccc(Cl)cc1)OC1C=C2CCN3Cc4cc5c(cc4C(C1O)C23)OCO5 (stereo not shown) [Compound 2, Lycorine 2-yl (4-chlorobenzyl)carbamate] | Slight synergism | 0.88 | 19.3 ± 0.87 | 3.01 | 58.1 ± 0.83 | 40.4 ± 1.9 | 1.44 | 2.09 | decreased the basal activity |
| Cc1ccc(CNC(=O)OC2C=C3CCN4Cc5cc6c(cc5C(C2OC(=O)NCc2ccc(C)cc2)C34)OCO6)cc1 (stereo not shown) [Compound 5, Lycorine 1,2-diyl bis[(4-methylbenzyl)carbamate]] | Strong synergism | 0.13 | > 100 | <0.057 | 5.75 ± 0.47 | 32.7 ± 0.62 | 0.17 | – | decreased the basal activity |
| O=C(NCCc1ccccc1)OC1C=C2CCN3Cc4cc5c(cc4C(C1OC(=O)NCCc1ccccc1)C23)OCO5 (stereo not shown) [Compound 9, Lycorine 1,2-diyl bis(phenethylcarbamate)] | Synergism | 0.56 | > 100 | <0.045 | – | 10.4 ± 0.28 | 0.43 | <0.10 | decreased the basal activity |
| O=C(OC1C=C2CCN3Cc4cc5c(cc4C(C1OC(=O)N1CCCCC1)C23)OCO5)N1CCCCC1 (stereo not shown) [Compound 16, Lycorine 1,2-diyl bis(piperidine-1-carboxylate)] | Synergism | 0.57 | 55.4 ± 1.63 | 1.06 | 59.2 ± 4.82 | 26.6 ± 1.37 | 2.22 | – | – |
| CC(C)(C)c1ccc(CNC(=O)OC2C=C3CCN4Cc5cc6c(cc5C(C2O)C34)OCO6)cc1 (stereo not shown) [Compound 19, Lycorine 2-yl [4-(tert-butyl)benzyl]carbamate] | Slight synergism | 0.88 | 26.5 ± 0.476 | 1.63 | 43.3 ± 0.75 | 7.64 ± 0.15 | 5.66 | 0.28 | decreased the basal activity |
| O=C(NCCc1ccc(Cl)cc1)OC1C=C2CCN3Cc4cc5c(cc4C(C1OC(=O)NCCc1ccc(Cl)cc1)C23)OCO5 (stereo not shown) [Compound 25, Lycorine 1,2-diyl bis[(4-chlorophenethyl)carbamate]] | Synergism | 0.50 | 47.7 ± 1.35 | 0.099 | 4.75 ± 0.08 | 3.14 ± 0.05 | 1.51 | 0.065 | decreased the basal activity |
| O=C(NCCc1ccc(Cl)cc1)OC1C=C2CCN3Cc4cc5c(cc4C(C1O)C23)OCO5 (stereo not shown) [Compound 26, Lycorine 2-yl (4-chlorophenethyl) carbamate] | Slight synergism | 0.88 | 53.9 ± 0.98 | 0.96 | 52.1 ± 3.09 | 37.9 ± 1.37 | 1.37 | – | decreased the basal activity |
